Experimental data reported in patent US20250009707A1, “METHODS OF INDUCING KETOSIS IN NON-HUMAN MAMMALS” (BOPZ Nutrition Ltd., priority 2023, published 2025).

Columns and labels:
[1] = Serum/plasma BHB in fed canines, gastric gavage (Examples 2-4); type: in vivo, canines (beagles); conditions: 500 mg/kg
Description: Ketosis may be assessed quantitatively by measuring plasma beta-hydroxybutyrate (BHB) concentrations. Methods of measuring plasma BHB concentrations are known in the art. Non-limiting exemplary methods for measuring plasma BHB concentrations are provided in U.S. Pat. No. 10,562,839, which is hereby incorporated by reference in its entirety. Plasma BHB levels may be determined by a colorimetric enzymatic assay (Stanbio Laboratory 2440-058).
(§1) A group of 6 beagles was evaluated per tested compound of the disclosure. In a first period, the canines were administered 250 mg/kg of C8-BHB. In a second period, the canines were administered 500 mg/kg of C8-BHB. In a third period, the canines were administered MCT at a dose of 5.5%. In a fourth period, the canines were administered 125 mg/kg of C8-BHB. A washout period of 7 days was provided between each of the first, second, third, and fourth periods.
(§2) Following the tolerability results of Example 1, the canines were fed, and the compound was administered by gastric gavage in subsequent examples.
In each of the first, second, third, and fourth period, serum was sampled prior to administration of the compound, then at minute 15, 30, 45, 60, 75, 90, 120, 180, 240, and 300. Serum was sampled for BHB analysis.
(§3) If emesis occurred 60 minutes from administration of the compound, serum BHB content was not analyzed.
C8-BHB and C8×2-BD were selected as exemplary compounds of the disclosure for administration to canines according to the method of Example 2. Each exemplary compound was administered to 6 canines.
To further evaluate the potential of the compounds of the disclosure for inducing ketosis in canines, the compounds and MCTs were administered to the same canines, as described in Example 2.

[2] = Tolerability (emesis) in fasted canines, sublingual gavage (Example 1); type: in vivo; conditions: 250 mg/kg
Description: Example 1 provides a method by which compounds of the disclosure were evaluated in a first study, wherein dogs were fasted and the compounds were administered by sublingual gavage.
In a first period, a group of 12 canines (beagles) were administered 5.5% MCT in a first period, and 250 mg/kg C8-BHB in a second period. A 7 day washout period was provided between the first and second periods.
The canines were fasted, and the C8-BHB or MCTs was administered by sublingual gavage.
(§4) In each of the first, second, third, and fourth period, pathology samples were taken prior to administration of the compound, then at minute 20, 60, 90, 120, 180, 240, and 300.
Where emesis occurred before 60 minutes from dosing, serum BHB content was not analyzed.
Where emesis occurred at or after 60 minutes from dosing and before 300 minutes from dosing, Cmax was calculated but AUC was not calculated.

[3] = Tolerability in fed canines, gastric gavage (Example 2); type: in vivo
Description: as §1, §2, §4, §3

| Structure (SMILES) | BHB Cmax [1] | BHB Tmax [1] | Tolerability compared to MCTs (FIG. 1B) [2] | Tolerability compared to MCTs (FIGS. 2A-D) ([3]; fed canines, gastric gavage, doses of 125, 250 and 500 mg/kg) | Canines tolerating the substance ([3]; fed state, overall) |
| --- | --- | --- | --- | --- | --- |
| CCCCCCCC(=O)O[C@H](C)CC(=O)OCC [C8-BHB, octanoyl-ethyl-3-hydroxybutyrate] | 1.00 mM | 51 min | better tolerated | improved tolerability | 83% |
| CCCCCCCC(=O)OCC[C@@H](C)OC(=O)CCCCCCC [C8×2-BD, bis-octanoyl-1,3-butanediol] | 0.70 mM | 57 min | – | – | – |
